The record followed here is ChEMBL document CHEMBL1143226, “Potent inhibitors of the hedgehog signaling pathway” (J Med Chem, 2008).

This test can be described thus: Antagonist activity at Hedgehog receptor expressed in 10t1/2 cells by Gli-luciferase reporter gene assay. It is filed as functional, cell-based. For orientation: A reporter such as luciferase makes a cellular process visible.

As usually defined, the IC50 is the concentration needed to halve the response being measured. `CC(NC(=O)Nc1cccc(C(F)(F)F)c1)c1nc2ccccc2c(=O)n1-c1ccc(F)cc1` (stereo not given) showed an IC50 of 4700 nM.

As for `COc1cc(NC(=O)NCc2nc3ccccc3c(=O)n2-c2ccc(F)cc2)cc(C(F)(F)F)c1`, the midpoint of inhibition, the IC50, lay at 250 nM.

With `O=C(NCc1nc2ccccc2c(=O)n1-c1ccc(F)cc1)Nc1cccc(C(F)(F)F)c1`, the IC50 was 700 nM.

As for `CC(C)n1c(CNC(=O)Nc2cccc(C(F)(F)F)c2)nc2ccccc2c1=O`, the IC50 stood at 4300 nM.

For the compound `CC(c1nc2ccccc2c(=O)n1-c1ccc(F)cc1)N(C)C(=O)Nc1cccc(C(F)(F)F)c1` (stereo not given), the IC50 came out at 1400 nM. Against the preceding compound, the IC50 is about 3.1-fold lower.

Take `O=C(NCc1nc2ccccc2c(=O)n1-c1ccc(F)cc1)Nc1cc(Cl)nc(Cl)c1`: the half-inhibitory concentration (IC50) turned out to be 110 nM.

The compound `CCc1nc2ccccc2c(=O)n1-c1ccc(F)cc1` yielded an IC50 above 10000 nM.

`O=C(NCc1nc2ccccc2c(=O)n1-c1ccc(F)cc1)Nc1ccc(Cl)c(C(F)(F)F)c1` came in with an IC50 of 70 nM.

For the compound `CNC(C)c1nc2ccccc2c(=O)n1-c1ccc(F)cc1` (stereo not given), the IC50 was above 10000 nM.

For the compound `CN(Cc1nc2ccccc2c(=O)[nH]1)C(=O)Nc1cccc(C(F)(F)F)c1`, the IC50 was above 10000 nM.
